“Also recorded” adds a separate entry of the source.
Key:
[1] = tested on: B16F1 transplanted pigmented melanoma; assay: BNCT: rate of tumour growth after thermal neutron irradiation in melanoma bearing mice; assay type: in vivo, C57/BL6 mice
Protocol: FIG. 7: Rate of tumour growth as a function of post-irradiation time in C57/BL6 mice bearing a B16F1 transplanted pigmented melanoma which have been intravenously injected with 6.0 mg/kg boronated phthalocyanine prepared according to Example 23, as a DOPC liposomal preparation, and at 24 hours from injection were irradiated by thermal neutrons for 20 and 30 min. The growth profile of the radiosensitized pigmented melanoma is compared with that obtained for untreated control mice.

[2] = Pharmacokinetics and tissue distribution in B16-F1 pigmented melanoma bearing mice; assay type: in vivo, C57/BL6 mice
Protocol: Toward this aim, once tumours had reached the volumes of […], the boronated phthalocyanine as DPPC liposomal preparation (0.75 mg/kg) or as a DOPC liposomal preparation (3 mg/kg) was systemically administered. […]

[3] = Photostability (photobleaching) under visible light irradiation, spectrophotometric; assay type: physicochemical; settings: irradiated as for FIG. 1; compared with not-boronated (unsubstituted zinc) phthalocyanine
Excerpt: FIG. 2A: Absorption spectrum and determination of the degraded unsubstituted zinc phthalocyanine, irradiated according to the experimental conditions described above for FIG. 1.
It is known that most phthalocyanines are subjected to a more or less extensive photobleaching under visible light irradiation. It is therefore important to define if the rate constant of this process is too fast, so that the active principle is photodegraded at a high rate, which could negatively interfere with the photosensitization of cells or other substrates. […] Results obtained with a not substituted phthalocyanine are reported. In FIG. 2A as a reference. From comparison of the plots shown in FIGS. 2A and 2B it may be concluded that • 1- the boron substituted molecules prepared according to the present invention are as useful photosensitizers able to absorb red visible light as the unsubstituted ones; • 2- the photobleaching kinetics undergoes only limited changes when the phthalocyanine structure is modified by introduction of boronated groups. […] Assessment of Activity on Biological Substrates

[4] = tested on: melanocytes deriving from murine pigmented melanoma B16-F1; assay: Photosensitization of B16-F1 melanocytes, survival by Trypan Blue exclusion test; assay type: cell-based; settings: 24 hrs incubation, DPPC or DOPC liposomal preparation 7 microM; red light 600-750 nm, 50 mW/cm^2; irradiation times as low as 10 min
Protocol: Irradiations were performed as described above for FIG. 1.
Melanocytes were incubated (24 hrs) with a DPCC or DOPC liposomal phthalocyanine preparation (7 microM). After incubation, the cells were washed with PBS and irradiated with red visible light (600-750 nm, 50 mW/cm^2). Survival was determined after the photo-treatment (18-24 hrs) by the Trypan Blue exclusion test. Results for delivered phthalocyanine are summarised in FIG. 3A (DPPC liposomes) and in FIG. 3B (DOPC liposomes).

[5] = tested on: B16F1 transplanted pigmented melanoma; assay: PDT: rate of tumour growth after red light irradiation in melanoma bearing mice; assay type: in vivo, C57/BL6 mice
Protocol: The tumour response is most evident if the irradiations are carried out at 3 h after injection of the photosensitizer.

Row | Substance | tumour necrosis after BNCT ([1]; 6.0 mg/kg i.v. in DOPC liposomes, thermal neutrons at 24 h) | tumour growth after BNCT ([1]; 6.0 mg/kg i.v. in DOPC liposomes, thermal neutrons at 24 h for 20 and 30 min, versus untreated control mice) | amount of phthalocyanine accumulated in the tumour ([1]; 24 h after i.v. injection in DOPC liposomes) | clearance from plasma ([2]; DPPC liposomes 0.75 mg/kg or DOPC liposomes 3 mg/kg, systemically administered) | clearance from liver and spleen ([2]; delivered via DOPC liposomes, after 1 week from injection) | recovery from liver and spleen ([2]; delivered via liposomes) | amount found in the skin (peritumoural tissue) ([2]; mouse, in vivo) | recovery from the kidneys ([2]; mouse, in vivo) | photobleaching [3] | cell survival after photo-treatment [4] | rate of tumour growth after PDT ([5]; 6.0 mg/kg i.v., DOPC liposomal preparation, 670 nm, 200 mW/cm^2, 250 J/cm^2) | tumour response by interval between injection and irradiation ([5]; irradiations carried out at 3 h after injection of the photosensitizer)
1 | 1,8(11),15(18),22(25)-tetrakis-{[4-(^10B-o-carboran-1-yl)methyl]phenoxy}phthalocyaninate zinc(II) [Example 23] | extensive tumour necrosis | significant delay in tumour growth | sufficient to achieve the BNCT effect |  |  |  |  |  |  |  |  | 
2 | 1,8(11),15(18),22(25)-tetrakis-{[4-(^11B-o-carboran-1-yl)methyl]phenoxy}-phthalocyaninate zinc(II) [Example 21] |  |  |  | rapid with no product residue at 24 hrs after the treatment | largely cleared | large recovery; also recorded: accumulated in large amounts | small amounts | Very limited amounts | more extensive photobleaching | almost complete cell mortality | significant delay in the rate of tumour growth | most evident

Source: patent US7842682B2, “Boronated metal-phthalocyanines, process for their preparation, pharmaceutical compositions comprising them and use thereof” (L. Molteni & C. Dei Fratelli Alitti, priority 2003, dated 2010)
